{
  "source": "ChEMBL document CHEMBL4616653",
  "about": "“Naphthacemycins from a Streptomyces sp. as Protein-Tyrosine Phosphatase Inhibitors” (J Nat Prod, 2020)",
  "data": [
    {"target": "T1, Tyrosine-protein phosphatase non-receptor type 1 (Homo sapiens, UniProt P18031)", "T1 sequence (P18031 whole entry)": "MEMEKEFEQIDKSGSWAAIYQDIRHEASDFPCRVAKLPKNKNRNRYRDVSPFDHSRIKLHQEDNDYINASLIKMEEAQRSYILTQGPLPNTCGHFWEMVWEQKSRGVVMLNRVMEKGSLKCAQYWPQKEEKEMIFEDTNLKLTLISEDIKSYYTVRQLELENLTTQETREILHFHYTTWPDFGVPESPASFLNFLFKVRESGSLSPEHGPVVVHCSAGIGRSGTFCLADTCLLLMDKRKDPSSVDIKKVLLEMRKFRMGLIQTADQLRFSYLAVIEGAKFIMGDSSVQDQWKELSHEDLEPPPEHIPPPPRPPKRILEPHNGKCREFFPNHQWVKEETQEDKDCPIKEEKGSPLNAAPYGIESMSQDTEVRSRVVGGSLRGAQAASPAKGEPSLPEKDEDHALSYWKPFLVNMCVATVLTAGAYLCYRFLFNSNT", "assay": "Inhibition of recombinant human PTP1B expressed in Escherichia coli using pNPP as substrate preincubated for 15 mins followed by substrate addition and measured after 60 mins", "units": {"IC50": "µM"}, "values": [
      {"smiles": "COc1cc(O)c(Cl)c(C)c1-c1cc(O)cc2cc3c(c(O)c12)C(=O)c1c(O)c(Cl)c(O)c(Cl)c1C3(C)C", "IC50": 2.11},
      {"smiles": "COc1cc(O)c(Cl)c(C)c1-c1cc(O)cc2cc3c(c(O)c12)C(=O)c1c(O)cc(O)cc1C3(C)C", "IC50": 3.38},
      {"smiles": "COc1cc(O)c(Cl)c(C)c1-c1cc(O)c(Cl)c2cc3c(c(O)c12)C(=O)c1c(cc(O)c(Cl)c1O)C3(C)C", "IC50": 8.27},
      {"smiles": "COc1cc(O)cc(C)c1-c1cc(O)cc2cc3c(c(O)c12)C(=O)c1c(cc(O)c(Cl)c1O)C3(C)C", "IC50": 7.69},
      {"smiles": "COc1cc(O)c(Cl)c(C)c1-c1cc(O)c(Cl)c2cc3c(c(O)c12)C(=O)c1c(O)c(Cl)c(O)c(Cl)c1C3(C)C", "IC50": 2.81},
      {"smiles": "COc1cc(O)c(Cl)c(C)c1-c1cc(O)c(Br)c2cc3c(c(O)c12)C(=O)c1c(O)cc(O)cc1C3(C)C", "IC50": 2.62},
      {"smiles": "COc1c(Cl)c(O)c(Cl)c(C)c1-c1cc(O)c(Cl)c2cc3c(c(O)c12)C(=O)c1c(O)c(Cl)c(O)c(Cl)c1C3(C)C", "IC50": 0.34},
      {"smiles": "COc1cc(O)c(Cl)c(C)c1-c1cc(O)cc2cc3c(c(O)c12)C(=O)c1c(cc(O)c(Cl)c1O)C3(C)C", "IC50": 2.7}
    ]}
  ]
}
